The record followed here is patent EP2316926B1, “Enantioselective production of alpha-hydroxy carbonyl compounds” (priority 2009, dated 2011).

Where “and” joins values, the source holds several entries; their conditions need not be identical. Equal entries are not always repeated.

In data set [1] the target is T1, Gox0644 (Gluconobacter oxydans, UniProt Q5FT75). Description: Coupled-enzyme biotransformation with cofactor regeneration, product determined by NMR (regio- and stereoselectivity). The format is biochemical. The protocol:
(§1) Measurement of enzyme activity: NADPH-dependent α-ketocarbonyl reductases were assayed by a routine method used for NAD(P)-linked enzymes by recording the rate of decrease of NADPH at 340 nm (ε = 6.22 mM^-1 x cm^-1)) with substrates at 30 °C. The reaction mixture (1 ml) for reduction of α-ketocarbonyl substrates contained 10 mM substrate, 40 mM potassium phosphate buffer pH 7.0, 0.025 mM NAD(P)H and the enzyme. Reactions were induced by addition of enzyme or substrate. One unit was defined as the amount of enzyme activity catalyzing the conversion of 1 µmol of pyridine nucleotide per min at 30 °C. NMR Analysis of Biotransformation Products: Biotransformations were extracted with equal volumes of CDCl3. and ^13C NMR spectra were recorded on a Bruker Avance 300 DPX spectrometer operating at 300 MHz for ^1H NMR and at 75 MHz for ^13C NMR, respectively. Spectra were processed using Bruker TonSpin 1.3 for Windows software and calibrated to the residual solvent peak of CDCl3 (δH = 7.26 / δC = 77.0).
Determination of the absolute configuration of the biotransformation product 2-hydroxy-pentan-3-one using chiral NMR shift solvents: Chiral NMR shift reagent (R,R)- and (S,S)-bis-α-methylbenzylamine-para-methyl (BMBA-p-Me) was prepared with small modifications according to the method reported by Kobayashi, Y et al., Tetrahedron Lett. 44: 7489-7491 (2003). In brief, the method of Marshall, J.A. and Mikowski, A. M., Org. Lett. 8:4375-4378 (2006) was used to synthesize 1,3-dibromo-2-methylpropane from 1,3-dihydroxy-2-methylpropane. Diisopropylethylamine (25.5 g), triphenylphosphine (20.1 g) and CBr4 (25.5 g) were sequentially added to a stirring solution of […] in 100 ml CH2Cl2 at 0 °C. The reaction was stirred for 3-4 h at 0 °C and concentrated under reduced pressure to give a green-brown oil. The oil was dissolved in diethyl ether and water (100 ml each) and the aqueous layer was extracted three times with diethyl ether. The organic extracts were combined and washed with water and brine, and dried over MgSO4. The reaction was concentrated under reduced pressure and applied to flash chromatography on silica 60 (230-400 mesh, 100% cyclohexane). Fractions containing the 1,3-dibromo-2-methylpropane product were combined (as judged by Si-TLC [100% cyclohexene]) and concentrated under reduced pressure resulting in a brown-yellow oil. The dibromopropane oil was used for the synthesis of (R,R)- and (S,S)-BMBA-p-Me as described by (Kobayashi, Y. et al., Org. Lett. 4(3):411-414 (2002). The crude oil was distilled by Kugelrohr at 240 °C to give crude BMPA-p-Me (yellow oil). BMBA-p-Me was purified by HPLC using a C18 column (Waters Xterra, 250 x 4.6 mm) at a flow rate of 0.8 ml min^-1 and a 40 min linear gradient of 50-100 % MeOH at ambient temperature. Fractions were concentrated under reduced pressure and BMBA-p-Me was identified by ^1H-NMR (colorless hygroscopic oil).
Approximately 7.5 mg of the extracted product 2-hydroxy-pentan-3-one was added to 15 mg (R,R)- or (S,S)-BMBA-p-Me (dissolved in 200-300 µl CDCl3) and analyzed by ^13C NMR with the readout adjusted to 0.001 ppm/point (sw = 239 ppm, td = 512k) (Fiorentino, A. et al., Tetrahedron., 62:8952-8958 (2006)). The absolute configuration was determined based on the sign of ΔδRR-SS (δ(R,R)-BMBA-p-Me - δ(S,S)-BMBA-p-Me) for the α-carbons adjacent to the hydroxymethine unit as formulated in the following model shown in Scheme 3 (valid for saturated secondary alcohols of acyclic and cyclic compounds): [drawing 7]
Cofactor regeneration: A prerequisite for the production of α-hydroxycarbonyl compounds is the regeneration of the expensive coenzymes and the stability of the protein catalysts. By coupling two coenzyme-dependent enzyme reactions, NADPH can be continuously regenerated. […]

Data set [2] has as its target T1, Gox0644. Kind of data set: NADPH-dependent α-ketocarbonyl reductase activity assay (rate of decrease of NADPH at 340 nm). The following applies: for Gox0644 U/mg*: Table 3, 10 mM substrate, 40 mM K-phosphate buffer pH 7.0, 0.05 mM NAD(P)H, 30 °C, U/mg = µmol x min^-1 x mg protein^-1. The format is biochemical. The protocol:
Reactions were induced by addition of enzyme or substrate. One unit was defined as the amount of enzyme activity catalyzing the conversion of 1 µmol of pyridine nucleotide per min at 30 °C. NMR Analysis of Biotransformation Products: Biotransformations were extracted with equal volumes of CDCl3. and ^13C NMR spectra were recorded on a Bruker Avance 300 DPX spectrometer operating at 300 MHz for ^1H NMR and at 75 MHz for ^13C NMR, respectively.
Reactions were induced by addition of enzyme or substrate. One unit of activity was defined as the amount of enzyme activity catalyzing the conversion of 1 µmol of pyridine nucleotide per min at 30 °C.
The standard reaction mixture (1 ml) for the reduction reactions of substrates contained 10 mM substrate, 40 mM potassium phosphate buffer (K-phosphate buffer) pH 7.0, 0.05 mM NAD(P)H, and the enzyme unless otherwise noted. Reactions were induced by addition of enzyme or substrate. One unit of activity was defined as the amount of enzyme activity catalyzing the conversion of 1 µmol of pyridine nucleotide per min at 30 °C. […] Table 3: Enzymatic activities with α-diketones, α-ketoaldehydes and α-ketoesters

Data set [3] has as its target T2, Gox1615 (Gluconobacter oxydans, UniProt Q5FQJ0).
T2 sequence (Q5FQJ0 1-332): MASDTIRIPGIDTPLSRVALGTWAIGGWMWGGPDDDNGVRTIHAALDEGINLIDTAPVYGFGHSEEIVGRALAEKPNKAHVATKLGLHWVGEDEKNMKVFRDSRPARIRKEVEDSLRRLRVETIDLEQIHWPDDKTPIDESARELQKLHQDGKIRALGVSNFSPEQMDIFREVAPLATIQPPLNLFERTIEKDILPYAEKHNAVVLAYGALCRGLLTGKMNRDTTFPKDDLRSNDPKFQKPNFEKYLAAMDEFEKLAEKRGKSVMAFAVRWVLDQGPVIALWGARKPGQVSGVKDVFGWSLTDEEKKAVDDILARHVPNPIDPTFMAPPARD
The data set is described as above. The format is biochemical. The following applies: for Gox1615 U/mg*: Table 3, 10 mM substrate, 40 mM K-phosphate buffer pH 7.0, 0.05 mM NAD(P)H, 30 °C, U/mg = µmol x min^-1 x mg protein^-1; for Specific Activity (U/mg)*: Table 5, cofactor NADPH, U/mg = µmol/mg·min. The protocol:
as §1
NADPH-dependent α-ketocarbonyl reductases were assayed by a routine method used for NAD(P)-linked enzymes by recording the rate of decrease of NADPH at 340 nm (ε = 6.22 mM^-1.cm^-1) with substrates at 30 °C. The reaction mixture (1 ml) for reduction of α-ketocarbonyl substrates contained 10 mM substrate, 40 mM potassium phosphate buffer pH 7.0, 0.025 mM NADPH, and the enzyme. Reactions were induced by addition of enzyme or substrate. One unit of activity was defined as the amount of enzyme activity catalyzing the conversion of 1 µmol of pyridine nucleotide per min at 30 °C.
Purified NAD(P)-dependent oxidoreductases were assayed at 30 °C by a routine method used for NAD(P)-linked enzymes by recording the rate of decrease of NAD(P)H at 340 nm (ε = 6.22 mM^-1˙cm^-1) with substrates capable of reduction reactions. The standard reaction mixture (1 ml) for the reduction reactions of substrates contained 10 mM substrate, 40 mM potassium phosphate buffer (K-phosphate buffer) pH 7.0, 0.05 mM NAD(P)H, and the enzyme unless otherwise noted. Reactions were induced by addition of enzyme or substrate. One unit of activity was defined as the amount of enzyme activity catalyzing the conversion of 1 µmol of pyridine nucleotide per min at 30 °C. Measurement of the protein content was performed by the method of Bradford (Bradford M.M., Anal. Biochem. 72:248-254 (1976)). Table 3: Enzymatic activities with α-diketones, α-ketoaldehydes and α-ketoesters

In data set [4] the target is T2, Gox1615. Kind of data set: Kinetic constants from purified enzyme by Lineweaver-Burk plots. The format is biochemical. The protocol:
(§2) Determination of pH and temperature optima and enzyme kinetics: The optimum pH for enzyme activities was determined by a modified method of Salusjärvi, T. et al., Appl. Microbiol. Biotechnol. 65:306-314 (2004) using the following buffer system (50 mM final concentration each): sodium acetate pH 4.5 - 6.5, potassium phosphate pH 6.5 - 8.0, Tris-HCl pH 8.0 - 10. Temperature optima for the biocatalysts were determined under standard reaction conditions at temperatures ranging from 20 - 80 °C. The Michaelis constant (Km) for the proteins was determined from purified enzyme by Lineweaver-Burk plots. Assays were performed at optimum pH for each enzyme and at 30 °C using the best substrate and a targeted substrate. The Km for each substrate was calculated using concentrations of 0.0025 to 10 mM, and the Km NAD(P)H and NAD(P) was calculated using concentrations of 0.01 to 0.5 mM
(§3) 2.9 Kinetic parameters of the keto carbonyl reductases: Kinetic constants were determined from purified enzyme by Lineweaver-Burk plots. The Km and Vmax values for the substrates were calculated using concentrations of 0.025 to 10 mM. The optimal pH values and temperatures for enzyme activities are also shown in Tab. 8. Table 8: Summary of kinetic parameters

The target in data set [5] is T1, Gox0644. Described as above. The format is biochemical. The protocol: as §2, §3
Data set [6] deals with O=CC(=O)c1ccccc1. The data set is described as above. The format is biochemical, Gluconobacter oxydans. As to conditions: other: 40 mM KPB at optimal pH and 30 °C, substrate 0.025 to 10 mM. The protocol:
as §2, §3

In data set [7] the test system is CCC(=O)C(C)=O. Described as above. The format is biochemical, Gluconobacter oxydans. As to conditions: other: 40 mM KPB at optimal pH and 30 °C, substrate 0.025 to 10 mM. On the procedure: as §2, §3
Substrate in data set [8]: CCCC(=O)C(C)=O
The data set is described as above. The format is biochemical, Gluconobacter oxydans. The following applies: other: 40 mM KPB at optimal pH and 30 °C, substrate 0.025 to 10 mM. The protocol:
as §2, §3

Substrate in data set [9]: O=CC(=O)c1ccccc1
Described as above. The format is biochemical, Gluconobacter oxydans. The following applies: other: 40 mM KPB at optimal pH and 30 °C, substrate 0.025 to 10 mM. On the procedure:
as §2, §3
The source holds these as a separate data set.

Substrate in data set [10]: CC(=O)C=O
Described as above. The format is biochemical, Gluconobacter oxydans. The following applies: other: 40 mM KPB at optimal pH and 30 °C, substrate 0.025 to 10 mM. On the procedure: as §2, §3

Substrate in data set [11]: CCC(=O)C(C)=O
The description is as above. The format is biochemical, Gluconobacter oxydans. The following applies: other: 40 mM KPB at optimal pH and 30 °C, substrate 0.025 to 10 mM. The protocol:
as §2, §3
This is another data set of the same source.

As to `CC(=O)C(=O)c1ccccc1` [1-phenyl-1,2-propanedione], the “Product (stereoselective reduction)” value in data set [1] (NMR with chiral solvent BMBA-p-Me) is reported as 1-phenyl-2R-hydroxy-propanone. The “Product (regioselective reduction)” value in [1] (determined by NMR analysis) is 1-phenyl-2-hydroxy-propanone and 1-phenyl-2-hydroxy-1-propanone. Also, the “Gox0644 U/mg*” value in [2] was 75.4 U/mg. This molecule also displayed an activity in [2] (substrates showing the highest activities) of 75 U/mg protein. Further, in [3], the “Gox1615 U/mg*” value was determined as 5.4 U/mg and the “Specific Activity (U/mg)*” value is reported as 5.4 U/mg.
Take `CC(=O)C=O` [methylglyoxal]: in [4], the Vmax is 23 U/mg protein. In addition, in data set [2], the “Gox0644 U/mg*” value is reported as 3.4 U/mg. Further, in data set [3], the “Gox1615 U/mg*” value stood at 23.0 U/mg and the “Specific Activity (U/mg)*” value came out at 23.0 U/mg.
On to `O=CC(=O)c1ccccc1` [phenylglyoxal], for which, in data set [5], the Vmax is given as 75 U/mg protein. Moreover, in data set [2], the “Gox0644 U/mg*” value worked out at 74.7 U/mg. In addition, in data set [3], the “Gox1615 U/mg*” value is 19.1 U/mg and the “Specific Activity (U/mg)*” value came out at 19.1 U/mg.
Turning to Gox0644 (Gluconobacter oxydans 621H), in data set [6], the Km is 4.8 mM and the Vmax is reported as 74.7 µmol/min x mg. In addition, in [7], the Km is 5.7 mM and the Vmax is 69.6 µmol/min x mg.

B1: Gox1615 (Gluconobacter oxydans 621H) (protein)
chain: T2 sequence (Q5FQJ0 1-332)
In the case of B1, the Km amounted to 4.0 mM in data set [8], 4.3 mM in data set [9], 4.3 mM in data set [10] and 4.0 mM in data set [11]. Moreover, the Vmax in data set [8] is listed as 7.0 U/mg protein; in data set [9] it was 23 U/mg protein; in [10] it was 23.0 µmol/min x mg; in data set [11], 7.0 µmol/min x mg.
